Measurements from PubChem BioAssay (NCI).
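1) Cells in 96-well plates. 2) Compound, 48 h, 5 concentrations. 3) Linear interpolation between surrounding doses. 4) Unreached endpoint = highest concentration. TGI marks complete inhibition of growth.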

Tests used:
Assay in all cases: NCI-60 cell line screen, 48 h
BT-549 breast = test system: BT-549 breast
A549 NSCLC = test system: A549 NSCLC
SW-620 colon = test system: SW-620 colon
MCF7 breast = test system: MCF7 breast
COLO 205 colon = test system: COLO 205 colon
LOX IMVI melanoma = test system: LOX IMVI melanoma
HOP-62 NSCLC = test system: HOP-62 NSCLC
NCI-H226 lung = test system: NCI-H226 lung
TK-10 renal = test system: TK-10 renal
HCT-116 colon = test system: HCT-116 colon
HOP-92 NSCLC = test system: HOP-92 NSCLC
NCI-H23 lung = test system: NCI-H23 lung
UACC-62 melanoma = test system: UACC-62 melanoma
UACC-257 melanoma = test system: UACC-257 melanoma
DU-145 prostate = test system: DU-145 prostate
SK-MEL-28 melanoma = test system: SK-MEL-28 melanoma
SF-295 CNS = test system: SF-295 CNS
IGROV1 ovarian = test system: IGROV1 ovarian
SK-OV-3 ovarian = test system: SK-OV-3 ovarian
786-0 renal = test system: 786-0 renal

SMILES	TGI (BT-549 breast) [µM]	TGI (A549 NSCLC) [µM]	TGI (SW-620 colon) [µM]	TGI (MCF7 breast) [µM]	TGI (COLO 205 colon) [µM]	TGI (LOX IMVI melanoma) [µM]	TGI (HOP-62 NSCLC) [µM]	TGI (NCI-H226 lung) [µM]	TGI (TK-10 renal) [µM]	TGI (HCT-116 colon) [µM]	TGI (HOP-92 NSCLC) [µM]	TGI (NCI-H23 lung) [µM]	TGI (UACC-62 melanoma) [µM]	TGI (UACC-257 melanoma) [µM]	TGI (DU-145 prostate) [µM]	TGI (SK-MEL-28 melanoma) [µM]	TGI (SF-295 CNS) [µM]	TGI (IGROV1 ovarian) [µM]	TGI (SK-OV-3 ovarian) [µM]	TGI (786-0 renal) [µM]
CC(O)CCNC(=O)Nc1c(C(F)(F)F)cc(-c2ccccc2)[nH]c1=O (stereo not given)	> 100	> 100	> 100	> 100	> 100	> 100	> 100	> 100	> 100	> 100	> 100	> 100	> 100	> 100	> 100	> 100	> 100	> 100	> 100	> 100
CCCCC1C(=O)N(c2ccc(S(=O)(=O)Nc3ccccn3)cc2)N(c2ccc(O)c(C(=O)O)c2)C1=O (stereo not given)	> 100	> 100	> 100	> 100	> 100	> 100	–	> 100	–	> 100	> 100	> 100	> 100	> 100	> 100	> 100	> 100	> 100	> 100	> 100
Cc1ccc(S(=O)(=O)NC(=O)NC(C(=O)O)C(C)O)cc1 (stereo not given)	> 100	> 100	> 100	> 100	> 100	> 100	> 100	–	> 100	> 100	> 100	> 100	> 100	> 100	> 100	> 100	> 100	> 100	> 100	> 100
CCOC(=O)c1ccc(NC(=O)O/N=C(/Cl)C(C)C)cc1	32.7	47.7	4.32	21.3	5.77	9.65	32.2	50.2	33.5	22.4	3.7	47.7	38.2	32	> 67.2	31	34.8	43	33.4	16.5
Cc1cc(C)c(S(=O)(=O)N(CCCCCCN)OCCCN)c(C)c1	33.3	> 100	40.4	37.3	32.3	31.3	46	86.5	29.4	31.7	29.9	32	40	29.7	31.3	36.1	34.8	29.6	34	32.1
COc1cc(/C=C/C=C2\CCC/C(=C\C=C\c3ccc(O)c(OC)c3)C2=O)ccc1O	60.5	26.8	51.1	36	71.5	33.5	52.7	–	52	49	44.9	> 100	31.6	31.4	> 100	30.2	27	74.7	> 100	63.5
CSC1=C(C#N)C(=O)N(c2ccc(Cl)cc2)C(=O)C1C#N (stereo not given)	> 100	> 100	> 100	> 100	> 100	> 100	> 100	> 100	> 100	> 100	76.9	> 100	> 100	> 100	> 100	> 100	> 100	> 100	> 100	> 100
COC(=O)c1ccc(/C=C2\Cc3ccccc3C2=O)cc1	> 100	> 100	> 100	> 100	> 100	–	> 100	–	> 100	> 100	–	> 100	> 100	> 100	> 100	> 100	> 100	–	> 100	> 100
CCOC(=O)CCC(NC(=O)c1ccc(Nc2cnc3cc(C(F)(F)F)ccc3n2)cc1)C(=O)OCC (stereo not given)	49	> 100	> 100	> 31.6	> 100	> 100	34.7	> 100	> 100	> 100	49.6	> 100	–	> 100	> 100	> 100	26	> 100	–	> 66.8
C[n+]1c2ccccc2c(C(=O)NC(CCCN=C(N)N)C(=O)O)c2ccccc21 (stereo not given)	> 100	> 100	> 100	> 100	> 100	> 100	> 100	–	> 100	> 100	–	> 100	> 100	> 100	> 100	> 100	> 100	> 100	> 100	> 100
Cc1cc(S(=O)(=O)Nc2nc3ccccc3[nH]2)c(S)cc1Cl	> 100	> 100	> 100	> 100	> 100	39.8	> 100	–	> 100	76.5	> 100	> 100	> 100	> 100	> 100	73.5	> 100	> 100	> 100	> 100
CN(C(=O)[C@@H](NC(=O)OC(C)(C)C)c1ccccc1)[C@H]1CCCC[C@@H]1N1CCCC1	> 100	> 100	> 100	> 100	> 100	–	> 100	> 100	> 100	> 100	–	> 100	> 100	> 100	> 100	> 100	> 100	> 100	> 100	> 100
